The source of these data is patent publication US7314858B2, “Retrocyclins: antiviral and antimicrobial peptides” (priority 2001, dated 2008).

“Also recorded” adds a separate entry of the source. Where a SMILES comes first, the peptide text is derived from it. Bridges are numbered along the chain shown (N, C = ends).

For one series, the system named is H9 cells. Description: MTT cytotoxicity assay. In kind it is cell-based, human. Conditions: 100 μg/ml. As for the experimental part:
(§1) FIG. 8. Cytotoxicity of antimicrobial peptides against H9 cells. Retrocyclin, RTD-1 and PG-1 (a porcine-derived peptide with anti-HIV-1 activity) were tested for cytotoxicity using an MTT assay for cell proliferation. Note that the EC50 of Retrocyclin and RTD-1 were >100 μg/ml, concentrations well above their antiviral concentration.
(§2) Retrocyclin is not cytotoxic. […] Retrocyclin was not hemolytic for human erythrocytes.
In general terms: Formazan colour is commonly taken as a measure of viable cells.

A short description of another series: MTT cytotoxicity assay. In kind it is cell-based, human. The settings on record: human, H9 cells. The protocol: as §1, §2
The subject of series [1] is ME-180 cervical carcinoma cells. Conditions: 100 μg/ml.
For another series, the system named is E. coli ML-35p. Description: Two-stage radial diffusion assay. In kind it is cell-based, Escherichia coli. The protocol:
(§3) FIG. 4. Effect of salt on antibacterial activity of circular minidefensins. Human retrocyclin and monkey RTD-1 were tested against our standard lab stains: E. coli ML-35p, P. aeruginosa MR 3007, L. monocytogenes EGD, and S. aureus 930918. The bars show MIC values±SEM values that resulted from 3-6 radial diffusion assays per organism and assay condition.
(§4) The effects of NaCl on the antimicrobial activity of retrocyclin and RTD-1, from two-stage radial diffusion assays, are compared in FIG. 4.

For a further series, the system named is L. monocytogenes EGD. Nature of the series: Two-stage radial diffusion assay. It counts as cell-based, Listeria monocytogenes. As for the experimental part:
as §3, §4

Series [2] in a line: Preliminary surface plasmon resonance, sphingolipid binding. The settings on record: preliminary SPR. (SPR reads the build-up and loss of mass on a sensor chip optically.)
The next series concerns HIV-1 strain IIIB. Nature of the series: HIV-1 IIIB infection of H9 cells, p24 antigen ELISA. It counts as cell-based. As for the experimental part:
FIG. 1. Circular minidefensins reduce HIV-1 infection of H9 cells. HIV-I strain IIIB (MOI=10^−2) was incubated with 2.5×10^5 H9 cells in the presence or absence of 20 μg/ml RTD-1, RTD-2 or RTD-3. p24 antigen release was monitored by ELISA on days 3, 6, and 9. Assay sensitivity=10 pg/ml.
Immortalized CD4^+ H9 cells, which are permissive for infection with this strain, were maintained in RPMI supplemented with 10% heat-inactivated fetal calf serum (FCS), 10 mM HEPES, 2 mM glutamine, 100 U of penicillin/ml, and 10 μg of streptomycin/ml (R10 media). Cells (2.5×10^5/100 μl) were incubated with virus (multiplicity of infection (MOI)=10^−2) in the presence or absence of 20 μg/ml RTD-1, RTD-2 or RTD-3 for 3 hrs at 37° C./5% CO2. The cells were washed in R10 media, seeded in 48-well tissue culture plates in 1 ml R10 media, and incubated at 37° C./5% CO2 for 9 days. Aliquots of cell supernatant were removed at the specified time points and analyzed by a sensitive ELISA (DuPont NEN) that quantitates p24 antigen of HIV-1. The three circular rhesus minidefensins were similarly active, inhibiting HIV-1 by 100-1000 fold by 9 days post-inoculation (note the logarithmic scale).
Either HIV-1-permissive H9 cells were used as targets, or primary CD4^+ lymphocytes from HIV-1-seronegative donors generated from freshly purified peripheral blood mononuclear cells (PBMC) stimulated with a CD3-CD8 bispecific monoclonal antibody. After approximately 7 days, when 98% of these cells co-expressed CD3 and CD4, they were infected with HIV-1 with or without retrocyclin or other test peptide. These cells were maintained in RPMI containing 10% FCS supplemented with 2 mM glutamine, 100 U of penicillin/ml, 10 μg of streptomycin/ml, and 50 U of interleukin 2/ml (R10-50 media).
Mature retrocyclin was prepared by a three-step process.
(ELISA stands for enzyme-linked immunosorbent assay.)

A further series has as its system HSV-1. Description: HSV inactivation microplate assay on ME-180 cells (MTT). In kind it is cell-based, herpes simplex virus, type 1. Conditions: 2-50 μg/ml, 2 hrs with virus, 72 hrs culture. The protocol: FIG. 14. Inactivation of HSV-1 and HSV-2 by retrocyclin and RC-101. Retrocyclin (left panel) and RC-101 (right panel) at the indicated concentrations were incubated with herpes simplex virus, type 1 (HSV-1) or HSV-2 for 2 hrs and then added to ME-180 cell monolayers. Cells were incubated at 37° C. for 72 hrs, and cytotoxicity was measured with an MTT kit.
Some retrocyclins are slightly active against herpes simplex virus (HSV). To determine if the activity of retrocyclin against HIV-1 was specific or representative of a more global antiviral effect, it was tested its ability to prevent HSV infection in vitro. A quantitative microplate assay was used to screen retrocyclin and retrocyclin-congeners for their ability to inactivate HSV type 1 (HSV-1) and HSV-2. The assay utilized small amounts of peptide and simultaneously evaluated for peptide-induced cytotoxicity. In brief, final peptide concentrations of 2-50 μg/ml were incubated with virus stocks for 2 hrs and added directly to ME-180 human cervical carcinoma cells. Cultures were incubated at 37° C. for 72 hrs and cytotoxicity was measured using a 3-(4,5-dimethylthiazon-2-yl)-2,5-diphenyltetrazolium bromide (MTT) cell proliferation kit (Boehringer-Mannheim, Germany). Calculations to assess antiviral activity and compute “percent protection” are delineated in (90).

In another series the test system is HIV-IIIB. Nature of the series: Direct inactivation of HIV-1 virions (preincubation with virus, dilution, infection of H9 cells). In kind it is cell-based. Conditions: 200 μg/ml, 30 min, then diluted 190-fold. The protocol:
FIG. 12. […] Retrocyclin (2-200 μg/ml) was incubated with HIV-IIIB (MOI=10^−2) diluted in R10 media prior to infecting H9 cells. p24 antigen release was measured by ELISA. Limit of detection=10 pg/ml.
To determine if retrocyclin directly inactivated HIV-1 virions, HIV-IIIB (MOI 10^−2) was incubated with 2 μg/ml, 20 μg/ml, or 200 μg/ml retrocyclin for 30 min at room temperature in R10 media. […] Viral replication was measured by collecting supernatant for 9 days at 3 day intervals to quantify HIV-1 p24 antigen by ELISA (FIG. 12). […] In this respect, the actions of retrocyclin are different from the direct inactivation of herpes simplex virus previously observed with human and rabbit α-defensins.

On to `CC[C@H](C)[C@@H]1NC(=O)CNC(=O)[C@H](CCCNC(=N)N)NC(=O)CNC(=O)[C@@H]2CSSC[C@H](NC1=O)C(=O)N[C@@H](CCCNC(=N)N)C(=O)N[C@H]1CSSC[C@H](NC(=O)[C@H](CCCNC(=N)N)NC(=O)[C@@H]3CSSC[C@H](NC(=O)[C@H]([C@@H](C)CC)NC1=O)C(=O)NCC(=O)N[C@@H](CCCNC(=N)N)C(=O)NCC(=O)N[C@@H]([C@@H](C)CC)C(=O)N3)C(=O)N[C@@H]([C@@H](C)CC)C(=O)N2` [RC-100, Retrocyclin] (cyclo(GICRCICGRGICRCICGR); disulfide 3-16, 5-14, 7-12), for which the “cytotoxicity (MTT)” value (in the series with H9 cells; in series [1]) was “little to no cytotoxicity” in each case. Also, the EC50 in the series “MTT cytotoxicity assay” is over 100 µg/mL. Besides, the hemolysis entry with human erythrocytes is given as “not hemolytic”. The “effect of salt on antimicrobial activity” value in the series with E. coli ML-35p (hypersalinity (175 mM NaCl)) and in the series with L. monocytogenes EGD (hypersalinity (175 mM NaCl)) was “only modestly inhibitory” in each case. The antimicrobial activity result in the series with E. coli ML-35p (physiological (100 mM) NaCl) and in the series on L. monocytogenes EGD (physiological (100 mM) NaCl) was “strong activity” throughout. Also, the “binding to sphingolipids (galactosylceramide)” value in [2] is on record as “binds with high affinity”. Also, in the series with HIV-1 strain IIIB, the “concentration required for complete protection against HIV-1 infection” value stood at 10 µg/mL. Besides, the “inhibition of HIV-1 replication (p24)” value in the series on HIV-1 strain IIIB (H9 cells, IIIB (X4), peptide 10-20 μg/ml) is “complete suppression; also recorded: antiviral”. Moreover, the antiviral activity entry in the series on HIV-1 strain IIIB (at <2 μg/ml, n=5) is recorded as “no significant antiviral activity”. Further, the “protection against HSV-1” value in the series with HSV-1 is listed as “not HSV-1”. In addition, the “HIV titer after incubation of virus with peptide” value in the series on HIV-IIIB is reported as “not reduced”.

`CC[C@H](C)[C@@H]1NC(=O)CNC(=O)[C@H](CCCCN)NC(=O)CNC(=O)[C@@H]2CSSC[C@H](NC1=O)C(=O)N[C@@H](CCCNC(=N)N)C(=O)N[C@H]1CSSC[C@H](NC(=O)[C@H](CCCNC(=N)N)NC(=O)[C@@H]3CSSC[C@H](NC(=O)[C@H]([C@@H](C)CC)NC1=O)C(=O)NCC(=O)N[C@@H](CCCNC(=N)N)C(=O)NCC(=O)N[C@@H]([C@@H](C)CC)C(=O)N3)C(=O)N[C@@H]([C@@H](C)CC)C(=O)N2` [RC-101, R9K-Retrocyclin]: the “protection against HSV-1” value in the series on HSV-1 was “modestly protective”.

Broadly, the EC50 is the concentration giving half of the maximal effect.
